Source: US20080032324A1, “Apparatus and method for cell migration assays” (The Trustees Of Tufts College, priority 2004, published 2008)
“Also recorded” adds a separate entry of the source.

How the values were obtained:
Format in all cases: cell-based, mouse
NIH/3T3 fibroblasts [1] = test: Fiber bundle whole-cell migration assay (residence time, 25 μm fibers); conditions: ten minutes per frame, average of 30 fibers, ten hours, control 4.3±2.9 frames
Protocol: (§1) After labeling, the cells were allowed to settle and adhere to a fibronectin-coated fiber bundle that had been secured to a delta T4 dish (FIG. 1A). Fibers were placed into the delta T4 dish to maintain the temperature at 37° C. during experiments. […] After cells were allowed to adhere to the bundle's distal end, it was mounted on an inverted microscope stage, and excitation light was introduced through the proximal end of the fiber bundle. The fiber bundle is not connected directly to any part of the microscope, but remains within a centimeter of the objective. The excitation light was transferred through the fiber bundle to the distal end, where it excited the Vibrant DiO dye in the cell membrane (FIG. 1B). The resulting fluorescence emission light was then carried back through the fiber bundle to a CCD camera. […]
(§2) Cell migration was detected using two types of fiber bundles differing in the sizes of the individual fibers. […]
Migration is quantified as an increase in intensity at a particular fiber, as a fluorescently dyed cell moves across that fiber. […]
In this example, a threshold was assigned for each selected fiber at 75% of the maximum peak intensity for that particular fiber. […] The number of frames that the intensity stays above this threshold is counted for each fiber, and then averaged for all 30 fibers, giving an average residence time for the experiment (FIG. 2D). […]

NIH/3T3 fibroblasts [2] = test: Cell viability, ethidium homodimer-1 dead assay after the experiment; conditions: ethidium homodimer dead assay after each experiment
Description: The dead assay was taken from a Live/Dead Viability/Cytotoxicity kit from Molecular Probes. DiO and EthD show virtually no overlap in excitation/emission wavelengths, being 484/501 nm and 528/617 nm, respectively.

NIH/3T3 fibroblasts [3] = test: Fiber bundle subcellular imaging assay (residence time, 4.5 μm fibers); conditions: 10 seconds per frame, top 30 fibers, 5-minute experiment, control 7.5±7.4 frames
Protocol: as §1, with “The excitation light was transferred through the fiber bundle to the distal end, where it excited the Vibrant DiO dye in the cell membrane (FIG. 1B).” left out
as §2
The data shown in FIG. 3C originate from an experiment in which three separate fibers were exposed to successively higher concentrations of nocodazole. […] Regions of the cell periphery can be difficult to distinguish from the background, because the fluorescence intensity gradually diminishes at the cell perimeter. […]
Timelapse recording was performed to determine the extent of cell migration or membrane motion across the fiber surface. […] Cell movement was recorded on delta T4 dishes (data not shown), as well as on Schott and Illumina fiber bundles. […] All movement was recorded using a fluorescein filter set. […]

With COC(=O)Nc1nc2ccc(C(=O)c3cccs3)cc2[nH]1 [nocodazole, Nocodazole] the average residence time (NIH/3T3 fibroblasts [1]; 200 nM nocodazole) was 18.8±10.3 frames, the average residence time (NIH/3T3 fibroblasts [1]; 300 nM nocodazole) was 24.6±18.6 frames and the “cell viability after nocodazole treatment” value (NIH/3T3 fibroblasts [2]) was “all cells were alive; also recorded: Cells were determined to be alive”. For the same molecule, the average residence time (NIH/3T3 fibroblasts [3]; 200 nM nocodazole) was 13.2±8.0 frames and the average residence time (NIH/3T3 fibroblasts [3]; 300 nM nocodazole) was 19.0±9.4 frames.
